{"source": "patent US9849104B2", "about": "(Gemphire Therapuetics Inc., priority 2015, dated 2017)", "key": {"fibrinogen": {"tested_on": "fibrinogen", "assay": "Fibrinogen in hypercholesterolemic patients, post hoc analysis of Study A4141001", "assay_type": "in vivo, human", "settings": "for Difference in fibrinogen change, Gem-placebo: subgroup baseline >400 mg/dL", "experimental": "Week 0) and the end (Visit T8, Week 8). Analyses of covariance (ANCOVA) methods used in the original study A4141001 were again utilized in these analyses. For fibrinogen, baseline was defined as the last pretreatment visit, and endpoint was the last visit up to and including the day after last dose of medication. The least-squares means and p-values for change from baseline in fibrinogen were calculated using an ANCOVA model with the effects of baseline lipid value and treatment. Also, medians and p-values for percent change from baseline. […] This, consequently, was the definition for the modified intent-to treat (MITT) population."}, "CYP2C9": {"target": "T1, CYP2C9 (Homo sapiens, UniProt P11712)", "T1 construct": "Human livers, HLM141, HLM143, and HLM144 were selected from the University of Washington Human Liver Bank for this study; Microsomes were prepared; tissue University of Washington Human Liver Bank HLM141, HLM143, HLM144; host or cells: human liver microsomes", "T1 sequence (P11712 whole entry)": "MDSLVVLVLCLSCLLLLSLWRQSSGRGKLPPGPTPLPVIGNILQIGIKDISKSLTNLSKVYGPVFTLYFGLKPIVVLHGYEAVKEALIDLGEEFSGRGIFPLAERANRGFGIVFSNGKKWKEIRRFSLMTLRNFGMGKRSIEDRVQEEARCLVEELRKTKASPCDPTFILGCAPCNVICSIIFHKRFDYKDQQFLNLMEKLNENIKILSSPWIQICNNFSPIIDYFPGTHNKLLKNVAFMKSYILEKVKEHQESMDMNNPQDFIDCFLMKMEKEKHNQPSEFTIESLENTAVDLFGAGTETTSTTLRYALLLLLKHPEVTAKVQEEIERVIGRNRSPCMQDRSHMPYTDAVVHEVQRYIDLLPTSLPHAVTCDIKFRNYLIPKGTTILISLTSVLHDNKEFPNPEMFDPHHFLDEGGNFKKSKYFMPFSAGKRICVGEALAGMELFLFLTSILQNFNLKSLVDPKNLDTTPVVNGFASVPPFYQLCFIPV", "assay": "Inhibition of CYP2C9 (7-hydroxylation of (S)-warfarin) in human liver microsomes", "assay_type": "in vitro ADME", "settings": "probe (S)-warfarin (7-hydroxylation), 4 μM, read-out: inhibitory activity toward CYP2C9", "experimental": "Human livers, HLM141, HLM143, and HLM144 were selected from the University of Washington Human Liver Bank for this study. […] The seven isoforms and the metabolic pathway of each of the probes used to monitor specific isoform activity are listed below.\nCYP2C9: The 7-hydroxylation of (S)-warfarin (4 μM). The reaction is monitored by quantitative GC/MS using 7-hydroxywarfarin-(d5-phenyl) as the internal standard."}}, "data": [{"smiles": "CC(C)(CCCCOCCCCC(C)(C)C(=O)O)C(=O)O", "note": "[Gemcabene, 6,6′-oxybis(2,2-dimethylhexanoic acid)]", "values": [{"measurement": "Difference in fibrinogen change = Gem − Placebo", "setting": "fibrinogen; MITT, Gemcabene 300 mg", "value": "−13.0"}, {"measurement": "Difference in fibrinogen change, Gem-placebo", "setting": "fibrinogen; Gem 300 mg", "value": 5.0}, {"measurement": "Difference in fibrinogen change, Gem-placebo", "setting": "fibrinogen; Gem 900 mg", "value": "−34.0"}, {"measurement": "inhibition at 1500 µM", "setting": "CYP2C9", "value": "10 to 20", "unit": "%"}]}]}
